From patent US7879760B2, “Isopentyl carboxanilides for combating undesired micro-organisms” (Bayer CropScience AG, priority 2003, dated 2011)
Where a name gives a salt, the structure may show the parent alone.

System: Sphaerotheca fuliginea
Test: Sphaerotheca test (cucumber)/protective
Type: in vivo
Settings: cucumber plants, protective spray; application rate 750 g/ha; evaluation 7 days after inoculation
Protocol: (§1) To produce a suitable preparation of active compound, 1 part by weight of active compound is mixed with the stated amounts of solvent and emulsifier, and the concentrate is diluted with water to the desired concentration.
To test for protective activity, young cucumber plants are sprayed with the preparation of active compound at the stated application rates. One day after the treatment, the plants are inoculated with a spore suspension of Sphaerotheca fuliginea. The plants are then placed in a greenhouse at 70% relative atmospheric humidity and a temperature of 23° C.
Evaluation is carried out 7 days after the inoculation. 0% means an efficacy which corresponds to that of the control, whereas an efficacy of 100% means that no infection is observed.

Row | Compound | Efficacy in %
1 | Cc1nn(C)c(F)c1C(=O)Nc1ccccc1CCC(C)C [drawing 128] | 100%
2 | Cc1ccccc1C(=O)Nc1ccccc1CCC(C)(C)C [drawing 131] | 100%
3 | Cc1ccsc1C(=O)Nc1ccccc1CCC(C)(C)C [drawing 129] | 100%
4 | CC(C)CCc1ccccc1NC(=O)c1ccccc1C(F)(F)F [drawing 130] | 100%

System: not listed separately
Test: logP determination by HPLC on reversed phase column (C 18), EEC-Directive 79/831 Annex V.A8
Type: physicochemical
Settings: reversed phase HPLC column (C 18), pH 2.3, 0.1% aqueous phosphoric acid/acetonitrile gradient, 43° C.
Protocol: The determination of the logP values given in preparation examples and tables above is carried out according to EEC-Directive 79/831 Annex V.A8 by HPLC (High Performance Liquid Chromatography) on a reversed phase column (C 18). Temperature: 43° C.
Determination is carried out in the acidic range at pH 2.3 using the mobile phases 0.1% aqueous phosphoric acid and acetonitrile; linear gradient from 10% acetonitrile to 90% acetonitrile.
Calibration is carried out using unbranched alkan-2-ones (of 3 to 16 carbon atoms) whose logP values are known (determination of the logP values by retention times using linear interpolation between two successive alkanones).

Row | Compound | chromatographic logP
5 | Cc1nn(C)c(F)c1C(=O)Nc1ccccc1C(=O)CC(C)C [Example (V-1)] | 3.42
6 | Cc1nn(C)c(F)c1C(=O)Nc1ccccc1CCC(C)C [Example 1, 5-fluoro-1,3-dimethyl-N-[2-(3-methylbutyl)phenyl]-1H-pyrazole-4-carboxamide] | 3.12
7 | CC(C)CC(=O)c1ccccc1N [Example (X-1), 1-(2-aminophenyl)-3-methylbutan-1-one] | 2.89
8 | CC(C)(C)C#Cc1ccccc1NC(=O)c1ccccc1C(F)(F)F [Example (VII-1), N-[2-(3,3-dimethylbut-1-ynyl)phenyl]-2-trifluoromethylbenzamide] | 4.55
9 | CC(C)(C)CCc1ccccc1N [Example (III-3), 2-(3,3-dimethylbutyl)phenylamine hydrochloride] | 2.2
10 | CC(=O)Nc1ccccc1C#CC(C)(C)C [Example (XIII-1), N-[2-(3,3-dimethylbut-1-ynyl)-phenyl]acetamide] | 3.03
11 | CC(=O)Nc1ccccc1CCC(C)(C)C [Example (III-2), N-[2-(3,3-dimethylbutyl)phenyl]acetamide] | 2.69

System: Venturia inaequalis
Test: Venturia test (apple)/protective
Type: in vivo
Settings: apple plants, protective spray, application rate 100 g/ha, read-out: Efficacy in %
Protocol: [table] To produce a suitable preparation of active compound, 1 part by weight of active compound is mixed with the stated amounts of solvents and emulsifier, and the concentrate is diluted with water to the desired concentration. To test for protective activity, young plants are sprayed with the preparation of active compound at the stated application rates. After the spray coating has dried on, the plants are inoculated with an aqueous conidia suspension of the apple scab pathogen Venturia inaequalis and then remain in an incubation cabin at about 20° C. and 100% relative atmospheric humidity for 1 day. The plants are then placed in a greenhouse at about 21° C. and a relative atmospheric humidity of about 90%.

Row | Compound | pest or weed control at 100 g/ha
12 | Cn1cc(C(=O)Nc2ccccc2CCC(C)(C)C)c(C(F)F)n1 [drawing 107] | 100%
13 | CCC(C)(C)CCc1ccccc1NC(=O)c1cn(C)nc1C(F)F [drawing 106] | 100%
14 | Cn1cc(C(=O)Nc2ccc(F)cc2CCC(C)(C)C)c(C(F)F)n1 [drawing 109] | 100%
15 | Cc1ccccc1C(=O)Nc1ccccc1CCC(C)(C)C [drawing 104] | 97%
16 | Cc1nn(C)c(F)c1C(=O)Nc1ccccc1CCC(C)(C)C [drawing 102] | 100%
17 | Cn1nc(C(F)(F)F)c(C(=O)Nc2ccccc2CCC(C)(C)C)c1F [drawing 108] | 100%
18 | Cc1ccsc1C(=O)Nc1ccccc1CCC(C)(C)C [drawing 103] | 99%
19 | Cc1nn(C)c(F)c1C(=O)Nc1ccccc1CCC(C)C [drawing 101] | 96%
20 | CCC(C)(C)CCc1ccccc1NC(=O)c1c(C)nn(C)c1F [drawing 105] | 100%

System: Puccinia recondita
Test: Puccinia test (wheat)/curative
Type: in vivo
Settings: 192 h, wheat plants, curative spray 48 hours after inoculation, application rate 500 g/ha, evaluation 8 days after inoculation, read-out: Efficacy in %
Protocol: as §1
To test for curative activity, young plants are sprayed with a conidia suspension of Puccinia recondita. The plants remain in an incubation cabin at 20° C. and 100% relative atmospheric humidity for 48 hours. The plants are then sprayed with the preparation of active compound at the stated application rates.
The plants are then placed in a greenhouse at a temperature of about 20° C. and a relative atmospheric humidity of 80% to promote the development of rust pustules.
Evaluation is carried out 8 days after the inoculation. 0% means an efficacy which corresponds to that of the control, whereas an efficacy of 100% means that no infection is observed.

Row | Compound | pest or weed control at 500 g/ha
21 | CCC(C)(C)CCc1ccccc1NC(=O)c1c(C)nn(C)c1F [drawing 124] | 100%
22 | Cc1nn(C)c(F)c1C(=O)Nc1ccccc1CCC(C)C [drawing 119] | 100%
23 | Cn1cc(C(=O)Nc2ccccc2CCC(C)(C)C)c(C(F)F)n1 [drawing 126] | 100%
24 | Cn1cc(C(=O)Nc2ccc(F)cc2CCC(C)(C)C)c(C(F)F)n1 [drawing 127] | 100%
25 | Cc1ccccc1C(=O)Nc1ccccc1CCC(C)C | 100%
26 | CC(C)CCc1ccccc1NC(=O)c1ccccc1C(F)(F)F [drawing 122] | 100%
27 | Cc1ccsc1C(=O)Nc1ccccc1CCC(C)(C)C [drawing 121] | 100%
28 | CCC(C)(C)CCc1ccccc1NC(=O)c1cn(C)nc1C(F)F [drawing 125] | 100%
29 | Cc1nn(C)c(F)c1C(=O)Nc1ccccc1CCC(C)(C)C [drawing 120] | 100%

System: Podosphaera leucotricha
Test: Podosphaera test (apple)/protective
Type: in vivo
Settings: 240 h, apple plants, protective spray, application rate 100 g/ha, evaluation 10 days after inoculation, read-out: Efficacy in %
Protocol: To produce a suitable preparation of active compound, 1 part by weight of compound is mixed with the stated amounts of solvents and emulsifier, and the concentrate is diluted with water to the desired concentration.
To test for protective activity, young plants are sprayed with the preparation of active compound at the stated application rates. After the spray coating has dried on, the plants are inoculated with an aqueous spore suspension of the apple mildew pathogen Podosphaera leucotricha. The plants are then placed in a greenhouse at about 23° C. and a relative atmospheric humidity of about 70%.
Evaluation is carried out 10 days after the inoculation. 0% means an efficacy which corresponds to that of the control, whereas an efficacy of 100% means that no infection is observed.

Row | Compound | pest or weed control at 100 g/ha
30 | CCC(C)(C)CCc1ccccc1NC(=O)c1c(C)nn(C)c1F [drawing 97] | 99%
31 | Cn1cc(C(=O)Nc2ccccc2CCC(C)(C)C)c(C(F)F)n1 [drawing 99] | 100%
32 | Cc1nn(C)c(F)c1C(=O)Nc1ccccc1CCC(C)(C)C [drawing 94] | 100%
33 | Cn1nc(C(F)(F)F)c(C(=O)Nc2ccccc2CCC(C)(C)C)c1F [drawing 100] | 100%
34 | Cc1ccsc1C(=O)Nc1ccccc1CCC(C)(C)C [drawing 95] | 99%
35 | Cc1nn(C)c(F)c1C(=O)Nc1ccccc1CCC(C)C [drawing 93] | 100%
36 | CCC(C)(C)CCc1ccccc1NC(=O)c1cn(C)nc1C(F)F [drawing 98] | 100%
37 | Cc1ccccc1C(=O)Nc1ccccc1CCC(C)(C)C [drawing 96] | 97%

System: Botrytis cinerea
Test: Botrytis test (bean)/protective
Type: in vivo
Settings: 48 h, bean plants, protective spray, application rate 500 g/ha, evaluation two days after inoculation, read-out: Efficacy in %
Protocol: To produce a suitable preparation of active compound, 1 part by weight of active compound is mixed with the stated amounts of solvents and emulsifier, and the concentrate is diluted with water to the desired concentration.
To test for protective activity, young plants are sprayed with the preparation of active compound at the stated application rates. After the spray coating has dried on, 2 small pieces of agar colonized by Botrytis cinerea are placed onto each leaf. The inoculated plants are placed in a dark chamber at about 20° C. and 100% relative atmospheric humidity.
Two days after the inoculation, the size of the infected areas on the leaves is evaluated. 0% means an efficacy which corresponds to that of the control, whereas an efficacy of 100% means that no infection is observed.

Row | Compound | pest or weed control at 500 g/ha
38 | Cn1cc(C(=O)Nc2ccc(F)cc2CCC(C)(C)C)c(C(F)F)n1 [drawing 118] | 100%
39 | Cn1nc(C(F)(F)F)c(C(=O)Nc2ccccc2CCC(C)(C)C)c1F [drawing 117] | 100%
40 | Cc1ccccc1C(=O)Nc1ccccc1CCC(C)(C)C [drawing 113] | 87%
41 | Cn1cc(C(=O)Nc2ccccc2CCC(C)(C)C)c(C(F)F)n1 [drawing 116] | 100%
42 | Cc1nn(C)c(F)c1C(=O)Nc1ccccc1CCC(C)(C)C [drawing 111] | 100%
43 | Cc1ccsc1C(=O)Nc1ccccc1CCC(C)(C)C [drawing 112] | 100%
44 | Cc1nn(C)c(F)c1C(=O)Nc1ccccc1CCC(C)C [drawing 110] | 84%
45 | CCC(C)(C)CCc1ccccc1NC(=O)c1cn(C)nc1C(F)F [drawing 115] | 100%
46 | CCC(C)(C)CCc1ccccc1NC(=O)c1c(C)nn(C)c1F [drawing 114] | 100%
